Consider 26 molecules from PubChem BioAssay AID328 (DTP/NCI, 2004).

Several values for one entry are separate records, joined by “and”; a condition that tells them apart may be missing. Identical values can stand only once. Toxic doses and inconclusive results are not listed. Non-standard residues stand in square brackets, D forms with d. Residues, ends and D or L forms follow the SMILES beside them. ξ: configuration not given here. *: point of attachment. Boc = CC(C)(C)OC(=O)*; ξM = CSCCC(N)C(=O)O

For this assay, the system named is BDF1 mice, P388 leukemia ip, median survival T/C. The experiment in a line: NCI In Vivo Anticancer Drug Screen. Data for tumor model P388 Leukemia (intraperitoneal) in B6D2F1 (BDF1) mice. Particulars: endpoint: median survival time, higher = longer survival. In outline:
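T/C = treated-group survival ÷ vehicle-control survival; tumour transplanted into mice before dosing.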

Where [1] appears, read: dose: 50.0 mg/kg/injection, schedule: Q01DX009 (ip), vehicle: saline with Tween-80.
Where [2] appears, read: dose: 100.0 mg/kg/injection, schedule: Q01DX009 (ip), vehicle: Klucel (hydroxypropylcellulose) (HPC).
Setting [3] is: dose: 100.0 mg/kg/injection, schedule: Q01DX009 (ip), vehicle: saline with Tween-80.
[4] abbreviates: dose: 100.0 mg/kg/injection, schedule: Q04DX003 (ip), vehicle: saline with Tween-80.
Setting [5] is: dose: 200.0 mg/kg/injection, schedule: Q01DX009 (ip), vehicle: saline with Tween-80.
Where [6] appears, read: dose: 200.0 mg/kg/injection, schedule: Q04DX003 (ip), vehicle: saline with Tween-80.
Setting [7] is: dose: 400.0 mg/kg/injection, schedule: Q01DX009 (ip), vehicle: saline with Tween-80.
Setting [8] is: dose: 400.0 mg/kg/injection, schedule: Q04DX003 (ip), vehicle: saline with Tween-80.
Where [9] appears, read: dose: 600.0 mg/kg/injection, schedule: Q04DX003 (ip), vehicle: saline with Tween-80.
Setting [10] is: dose: 25.0 mg/kg/injection, schedule: Q01DX009 (ip), vehicle: saline with Tween-80.
The mark [11] stands for this setting: dose: 50.0 mg/kg/injection, schedule: Q04DX003 (ip), vehicle: saline with Tween-80.
Setting [12] is: dose: 100.0 mg/kg/injection, schedule: Q01DX001 (ip), vehicle: saline with Tween-80.
The mark [13] stands for this setting: dose: 200.0 mg/kg/injection, schedule: Q01DX001 (ip), vehicle: saline with Tween-80.
Setting [14] is: dose: 50.0 mg/kg/injection, schedule: Q01DX005 (ip), vehicle: saline with Tween-80.
Setting [15] is: dose: 100.0 mg/kg/injection, schedule: Q01DX005 (ip), vehicle: saline with Tween-80.
The mark [16] stands for this setting: dose: 200.0 mg/kg/injection, schedule: Q01DX005 (ip), vehicle: saline with Tween-80.

With `OCC(O)C(O)C(O)C(O)CO` (centres undefined), the T/C was 100 % of control (dose: 100.0 mg/kg/injection, schedule: Q01DX010 (ip), vehicle: carboxymethylcellulose (CMC)); 95 % of control (dose: 100.0 mg/kg/injection, schedule: Q01DX010 (ip), vehicle: saline); 100 % of control (dose: 400.0 mg/kg/injection, schedule: Q01DX010 (ip), vehicle: carboxymethylcellulose (CMC)); 105 % of control and 110 % of control (dose: 400.0 mg/kg/injection, schedule: Q01DX010 (ip), vehicle: saline).
`ClCCN(CCCl)CCCN1c2ccccc2Sc2ccccc21`: the T/C reads like this: (dose: 3.12 mg/kg/injection, schedule: Q04DX003 (ip), vehicle: saline with Tween-80) 150 % of control; (dose: 12.5 mg/kg/injection, schedule: Q04DX003 (ip), vehicle: saline with Tween-80) 158 % of control and 169 % of control; (dose: 25.0 mg/kg/injection, schedule: Q04DX003 (ip), vehicle: saline with Tween-80) 152 % of control.
Regarding `COn1nnc2c([N+](=O)[O-])cccc21`, under setting [1], the T/C is 109 % of control.
Turning to `CCCc1nc2c(OC)ccc(OC)c2nc1C`, the T/C (dose: 25.0 mg/kg/injection, schedule: Q01DX009 (ip), vehicle: Klucel (hydroxypropylcellulose) (HPC)) is 100 % of control; the T/C (dose: 50.0 mg/kg/injection, schedule: Q01DX009 (ip), vehicle: Klucel (hydroxypropylcellulose) (HPC)) is 100 % of control; the T/C under setting [2] was 100 % of control; the T/C (dose: 150.0 mg/kg/injection, schedule: Q01DX009 (ip), vehicle: Klucel (hydroxypropylcellulose) (HPC)) was 90 % of control.
Turning to `CC1OC(Oc2c(-c3ccc(O)c(O)c3)oc3cc(O)cc(O)c3c2=O)C(O)C(O)C1O` (centres undefined), the T/C under setting [3] was 109 % of control; the T/C under setting [4] was 113 % of control; the T/C under setting [5] was 104 % of control; the T/C under setting [6] was 109 % of control; the T/C (dose: 264.0 mg/kg/injection, schedule: Q04DX003 (ip), vehicle: saline with Tween-80) is 104 % of control; the T/C under setting [7] was 118 % of control. The T/C reads like this: under setting [8], 104 % of control; under setting [9], 104 % of control.
On to `O=C(NC(C(=O)O)C(O)c1cn(C(=O)OCc2ccccc2)cn1)OCc1ccccc1` (centres undefined), for which the T/C is 113 % of control under setting [1], 110 % of control under setting [3] and 98 % of control under setting [5].
Take `O=C1OC(c2ccccc2)=C/C1=C/c1ccc([N+](=O)[O-])cc1`: the T/C by setting is: under setting [10], 104 % of control; under setting [1], 90 % of control; under setting [11], 105 % of control; under setting [3], 100 % of control; under setting [4], 109 % of control; under setting [5], 92 % of control. Further, the T/C under setting [6] is 99 % of control and 104 % of control; the T/C (dose: 300.0 mg/kg/injection, schedule: Q04DX003 (ip), vehicle: saline with Tween-80) was 87 % of control; the T/C under setting [7] was 92 % of control; the T/C under setting [8] is 96 % of control; the T/C under setting [9] was 91 % of control.
On to `Cc1ccc(C)c2c1CCCC2=O`, for which the T/C under setting [1] is 86 % of control, the T/C under setting [3] was 90 % of control, the T/C under setting [5] is 100 % of control and the T/C under setting [7] was 86 % of control.
For the molecule `Cc1cccc(NNC(=S)Nc2ccccc2)c1`, the T/C is, setting by setting: under setting [3], 104 % of control; under setting [5], 95 % of control; under setting [7], 104 % of control.
For `Oc1c(Cl)cc(Cl)cc1C=Nc1cc(C(F)(F)F)ccc1NCc1ccccc1`, the T/C is, setting by setting: under setting [1], 93 % of control; under setting [3], 89 % of control; under setting [5], 94 % of control.
`Nc1nc(N)c2cc(N3CCCC3c3ccc(Cl)cc3)ccc2n1` (centres undefined): the T/C runs as follows: (dose: 3.12 mg/kg/injection, schedule: Q01DX009 (ip), vehicle: saline) 109 % of control; (dose: 12.5 mg/kg/injection, schedule: Q01DX009 (ip), vehicle: saline) 89 % of control; (dose: 12.5 mg/kg/injection, schedule: Q04DX003 (ip), vehicle: water) 92 % of control; (dose: 25.0 mg/kg/injection, schedule: Q04DX003 (ip), vehicle: water) 111 % of control; (dose: 50.0 mg/kg/injection, schedule: Q04DX003 (ip), vehicle: water) 115 % of control.
`S=C1N(c2ccccc2)CN(C2CCCCC2)CN1c1ccccc1`: the T/C is, setting by setting: under setting [1], 89 % of control; under setting [3], 90 % of control; under setting [5], 89 % of control.
Regarding `CCOC(=O)/C=C(\C)SC1=CC(=O)C=CC1=O`, the T/C is, setting by setting: under setting [12], 106 % of control; under setting [13], 100 % of control.
For the molecule `COc1cccc(CC2c3ccccc3Nc3ccccc32)c1`, the T/C runs as follows: under setting [12], 88 % of control; under setting [13], 87 % of control; (dose: 400.0 mg/kg/injection, schedule: Q01DX001 (ip), vehicle: saline with Tween-80) 89 % of control.
With `O=C(O)C1(C(=O)O)CCC1.[NH2-].[NH2-].[Pt+2]`, the T/C (dose: 43.2 mg/kg/injection, schedule: Q01DX001 (ip), vehicle: saline) was 120 % of control.
In the case of `Cc1noc2ncnc(NCCCN(C)C)c12`, the T/C was 99 % of control under setting [1], 99 % of control under setting [3] and 102 % of control under setting [5].
As to `C1CC2CCC1CNC2`, the T/C is, setting by setting: under setting [10], 95 % of control; under setting [1], 100 % of control; under setting [3], 100 % of control.
`N#Cc1ccccc1[N+](=O)[O-]`: the T/C was 100 % of control (dose: 4.0 mg/kg/injection, schedule: Q01DX010 (ip), vehicle: carboxymethylcellulose (CMC)) and 100 % of control (dose: 16.0 mg/kg/injection, schedule: Q01DX010 (ip), vehicle: carboxymethylcellulose (CMC)).
On to `CSCCC(NC(=O)CNC(=O)OC(C)(C)C)C(=O)NCC(=O)O` (stereo not drawn) (Boc-Gly-[ξM]-Gly-OH), for which the T/C is 98 % of control under setting [14], 95 % of control under setting [15] and 95 % of control under setting [16].
`Nc1cc(=O)[nH]c(O)c1C(=O)O`: the T/C reads like this: (dose: 6.25 mg/kg/injection, schedule: Q04DX003 (ip), vehicle: saline) 109 % of control; (dose: 12.5 mg/kg/injection, schedule: Q04DX003 (ip), vehicle: saline) 100 % of control; (dose: 25.0 mg/kg/injection, schedule: Q04DX003 (ip), vehicle: saline) 100 % of control; (dose: 35.0 mg/kg/injection, schedule: Q04DX003 (ip), vehicle: saline) 100 % of control; (dose: 55.0 mg/kg/injection, schedule: Q04DX003 (ip), vehicle: saline) 113 % of control; (dose: 80.0 mg/kg/injection, schedule: Q04DX003 (ip), vehicle: saline) 100 % of control. Moreover, the T/C (dose: 120.0 mg/kg/injection, schedule: Q04DX003 (ip), vehicle: saline) is 104 % of control; the T/C (dose: 180.0 mg/kg/injection, schedule: Q04DX003 (ip), vehicle: saline) was 86 % of control; the T/C (dose: 270.0 mg/kg/injection, schedule: Q04DX003 (ip), vehicle: saline) was 100 % of control.
`O=C(c1cccnc1)C1Cc2ccccc2C1=O` (centres undefined): the T/C under setting [3] is 100 % of control; the T/C under setting [4] was 100 % of control; the T/C under setting [5] was 100 % of control; the T/C under setting [6] is 100 % of control; the T/C under setting [7] is 91 % of control; the T/C under setting [8] is 104 % of control.
For `CS(=O)(=O)OCCCCCCCCCOS(C)(=O)=O`, the T/C reads like this: (dose: 33.0 mg/kg/injection, schedule: Q04DX003 (ip), vehicle: saline with Tween-80) 104 % of control; under setting [11], 113 % of control.
For the molecule `O=[N+]([O-])c1ccc(N=N/C(Cc2ccccc2)=N\Nc2ccccc2)cc1`, the T/C is, setting by setting: under setting [2], 100 % of control; (dose: 200.0 mg/kg/injection, schedule: Q01DX009 (ip), vehicle: Klucel (hydroxypropylcellulose) (HPC)) 100 % of control.
Turning to `Cc1cc(Cl)nc(Cl)c1C(N)=O`, the T/C reads like this: under setting [14], 100 % of control; under setting [15], 100 % of control; under setting [16], 100 % of control.
Take `NCC(=O)O.[Cl][Ga]([Cl])[Cl]`: under “dose: 25.0 mg/kg/injection, schedule: Q01DX009 (ip), vehicle: saline”, the T/C was 120 % of control.
Regarding `COc1ccc2c(c1)CCC1=C2C=C[P+]1(C)C`, the T/C by setting is: (dose: 12.5 mg/kg/injection, schedule: Q01DX009 (ip), vehicle: saline with Tween-80) 92 % of control; under setting [10], 111 % of control.
